Measurements as given in patent US6991780B2, “Aluminum-zirconium antiperspirant salts with low M:CI ratio” (The Gillette Company, priority 2000, dated 2006).
Where “and” joins values, the source holds several entries; their conditions need not be identical. Identical values can stand only once. Values belong to the substance of their own block, whether it stands above or below them.

Legend:
[1] = tested on: volunteer panelists (axilla); test: standard hot room thermal efficacy (sweat reduction), test product on one axilla vs control on the other; assay type: in vivo, human; settings: for antiperspirant efficacy compared with conventional enhanced antiperspirant salt (EAZCH): in words, from Table 2 data
Source text: The above-described enhanced efficacy salt may be tested for thermal efficacy (i.e. hot room sweat reduction) using volunteer panelists in a standard hot room protocol. The test product (vehicle plus enhanced efficacy salt) is applied to one axilla and control product (vehicle only or vehicle plus standard efficacy antiperspirant salt) is applied to the other axilla. The above-described enhanced efficacy salt typically provides a sweat reduction of about 57–62% versus about 47–52% obtained with standard efficacy salt, when suspended as an 18–19% USP active in a liquid volatile silicone carrier vehicle. Also, a freshly prepared aqueous solution of the above-described enhanced efficacy salt (20% USP active) typically provides a sweat reduction of about 63–69% versus about 48–54% obtained with standard efficacy salt in aqueous solution at the same concentration.
The above-described high peak 5 enhanced efficacy salts of Example 1 are tested for thermal efficacy (i.e. hot room sweat reduction) using volunteer panelists in a standard hot room protocol. The test product is applied to one axilla and control product is applied to the other axilla in an AvB comparison. In all cases, the test product comprises vehicle (as described below) plus high peak 5 enhanced efficacy salt (E^5AZCH). The control product comprises vehicle plus conventional enhanced efficacy (high peak 4:3) antiperspirant salt (EAZCH), except where the vehicle is a clear gel formulation, in which case a standard efficacy salt (AZCH) is used because of the instability of the conventional enhanced salt in aqueous formulations. To counteract this instability, the formulation identified as “Aqueous” below, is freshly prepared with powdered EAZCH just prior to being tested. The results are reported as the average sweat reduction (“S.R.”) gain over the control (i.e. the absolute percentage point increase in sweat reduction over the control).

[2] = HPLC aluminum peak distribution after storage (stability of enhanced state); assay type: physicochemical; settings: aqueous solution
Method: Throughout the specification reference to HPLC analysis means that chromatograms are obtained as follows: Salt solutions are evaluated for aluminum polymer distribution by HPLC at a concentration of about 10% (USP) Al—Zr salt. If the solution to be analyzed is at a higher salt concentration, it is diluted with sufficient water to bring the salt concentration to about 10%. A 1.0 μL sample is injected into a Waters U6K injector, then pumped through a 4.6 mm×500 mm column packed with Nucleosil 100-5 silica with pore size of 100 angstroms and particle size of 5 μm (Keystone Scientific Inc.) using a 0.01M aqueous nitric acid solution as the eluant. The flow rate of the mobile phase is controlled at 0.5 mL/min with an LDC/Milton Roy Constametric-II metering pump (ThermoQuest Inc.). HPLC profiles are recorded and processed with a computerized system that includes the Millennium 32 Chromatography Manager software from Waters Corp. A Waters 2410 differential refractometer is used as the refractive index detector. The HPLC profiles are read from left to right (higher to lower molecular weight). Following this technique, peak 3 typically appears at a retention time of about 11.0–12.0 minutes (Kd≅0.58–0.61), peak 4 typically appears at a retention time of about 11.9–12.9 minutes (Kd≅0.62–0.72), and peak 5 typically appears at a retention time of about 13.3–14.0 minutes (Kd≅0.83–0.91). […]

[3] = aqueous solution, 20% USP active (enhanced salt freshly prepared)
[4] = suspended as 18–19% USP active in liquid volatile silicone carrier vehicle

Substance: aluminum-zirconium chlorohydrate [salt A]
antiperspirant efficacy compared with conventional enhanced antiperspirant salt (EAZCH) ([1]; listed as A): more efficacious | Avg. S.R. Gain Over Control ([1]; vehicle Roll-On (20.0% AP active), control EAZCH, listed as A): 5.8 percentage point

Substance: aluminum-zirconium chlorohydrate [salt C]
retention of efficacy on storage ([1]; after storage of the clear gel at high temperature): maintains its high efficacy | antiperspirant efficacy compared with current commercial clear gel product (standard efficacy salt) ([1]; formulated as clear gel): substantially more efficacious | antiperspirant efficacy compared with conventional enhanced antiperspirant salt (EAZCH) ([1]; listed as C): more efficacious | Avg. S.R. Gain Over Control ([1]; vehicle Aqueous (20% USP AP active), control EAZCH freshly prepared, listed as C): 4.2 percentage point | Avg. S.R. Gain Over Control ([1]; vehicle Clear Gel (23.5% AP active), control AZCH): 15.9 percentage point | Avg. S.R. Gain Over Control ([1]; vehicle Clear Gel aged 3 months at 45° C., control AZCH): 13.3 percentage point

Substance: aluminum-zirconium chlorohydrate [salt D]
antiperspirant efficacy compared with conventional enhanced antiperspirant salt (EAZCH) ([1]; listed as D): more efficacious | Avg. S.R. Gain Over Control ([1]; vehicle Aqueous (20% USP AP active), control EAZCH freshly prepared, listed as D): 5.9 percentage point and 4.6 percentage point | Avg. S.R. Gain Over Control ([1]; vehicle Roll-On (20.0% AP active), control EAZCH, listed as D): 8.7 percentage point

Substance: aluminum-zirconium chlorohydrate [salt E]
antiperspirant efficacy compared with conventional enhanced antiperspirant salt (EAZCH) ([1]; listed as E): just as efficacious | Avg. S.R. Gain Over Control ([1]; vehicle Aqueous (20% USP AP active), control EAZCH freshly prepared, listed as E): 1.3 percentage point

Substance: aluminum-zirconium chlorohydrate [salt F]
antiperspirant efficacy compared with conventional enhanced antiperspirant salt (EAZCH) ([1]; listed as F): more efficacious | Avg. S.R. Gain Over Control ([1]; vehicle Aqueous (20% USP AP active), control EAZCH freshly prepared, listed as F): 4.5 percentage point | Avg. S.R. Gain Over Control ([1]; vehicle Solid (23.5% AP active), control EAZCH, listed as F): 4.0 percentage point

Substance: aluminum-zirconium chlorohydrate [salt G]
antiperspirant efficacy compared with conventional enhanced antiperspirant salt (EAZCH) ([1]; listed as G): just as efficacious | Avg. S.R. Gain Over Control ([1]; vehicle Solid (23.5% AP active), control EAZCH, listed as G): 2.1 percentage point

Substance: aluminum-zirconium chlorohydrate [salt H]
antiperspirant efficacy compared with conventional enhanced antiperspirant salt (EAZCH) ([1]; listed as H): just as efficacious | Avg. S.R. Gain Over Control ([1]; vehicle Aqueous (20% USP AP active), control EAZCH freshly prepared, listed as H): 0.3 percentage point

Substance: aluminum-zirconium chlorohydrate [salt J]
antiperspirant efficacy compared with conventional enhanced antiperspirant salt (EAZCH) ([1]; listed as J): more efficacious | Avg. S.R. Gain Over Control ([1]; vehicle Aqueous (20% USP AP active), control EAZCH freshly prepared, listed as J): 4.3 percentage point

Substance: aluminum-zirconium chlorohydrate [salt K]
antiperspirant efficacy compared with conventional enhanced antiperspirant salt (EAZCH) ([1]; listed as K): just as efficacious | Avg. S.R. Gain Over Control ([1]; vehicle Aqueous (20% USP AP active), control EAZCH freshly prepared, listed as K): 1.7 percentage point

Substance: aluminum-zirconium chlorohydrate-gly [AZCH, reference compound]
sweat reduction [1, 3]: 48–54% | sweat reduction [1, 4]: 47–52%

Substance: aluminum-zirconium octachlorohydrate-gly [salt B]
antiperspirant efficacy compared with conventional enhanced antiperspirant salt (EAZCH) [1]: more efficacious | retention of efficacy on storage ([1]; stored as concentrated aqueous solution for 1.5 years): retains its superior efficacy | Avg. S.R. Gain Over Control ([1]; vehicle Aqueous, aged 1.5 years, control EAZCH): 7.0 percentage point

stability of enhanced state (peak 4:3 ratio) in aqueous form [2]: peak 4:3 ratio deteriorates very quickly
Substance: aluminum-zirconium tetrachlorohydrate [EAZCH, reference compound]
sweat reduction [1, 3]: 63–69% | sweat reduction [1, 4]: 57–62%
